{
  "source": "patent US6432937B1",
  "about": "“Treatment for joint inflammation” (priority 1996, dated 2002)",
  "type_in_all_cases": "in vivo, human",
  "key": {"[1]": {"system": "sacroiliitis and peripheral oligoarthritis", "assay": "Example 1: patient with sacroiliitis and peripheral oligoarthritis treated with oral budesonide", "settings": "person; for Outcome of previous treatment: sacroiliitis and peripheral oligoarthritis for over 7 years, treatment before budesonide", "experimental": "(§1) The invention is illustrated by the following examples where budesonide is administered orally using the Entocort™ preparation as described in EP-A-502092.\nThey were initially treated with 9 mg of budesonide once a day for the first four weeks and then the dose was reduced to 6 mg per day.\nThe normal value of morning stiffness is 0 min. The joint arthritic index was measured using the Lansbury index whose normal value is 0. The spinal movement was measured using Shober's Test whose normal value is from 5 to 6 cm. The joint pain at rest and in motion was estimated using a VAS (visual analogue scale) where 0 represents no pain and 10 very severe pain."}, "ankylosing spondylitis": {"system": "ankylosing spondylitis", "assay": "Example 2: patient with ankylosing spondylitis treated with oral budesonide", "settings": "person; for Outcome of previous treatment: ankylosing spondylitis for 12 years, treatment before budesonide", "experimental": "as §1\nThe tests were carried out in the same way as in Example 1 except that the laboratory inflammatory activity was measured using the ESR (erythrocyte sedimentation rate) whose normal value is less than 5 mm/h and the C-reactive protein plasma concentration which is usually less than 10 mg/litre."}, "[2]": {"system": "HLA-B27 associated sacroiliitis with peripheral arthropathies", "assay": "Example 5: patient with HLA-B27 associated sacroiliitis with peripheral arthropathies treated with oral budesonide", "settings": "for Outcome of previous treatment: sacroiliitis with peripheral arthropathies for 8 years, treatment before budesonide", "experimental": "as §1\nA patient had suffered from a HLA-B27 associated sacroiliitis with peripheral arthropathies for 8 years. […] At admittance to the hospital they suffered from direct pains of the sacroiliac joints and inflammation of the left knee and left ankle."}, "rheumatoid arthritis [3]": {"system": "rheumatoid arthritis", "assay": "Example 7: patient with rheumatoid arthritis treated with oral budesonide", "settings": "person, 9 mg per day, three weeks", "experimental": "The invention is illustrated by the following examples where budesonide is administered orally using the Entocort™ preparation as described in EP-A-502092. A person had suffered from joint swelling and joint pains for about 5 months. At admittance they had symmetric swelling of finger joints, both knees and left ankle. They were on treatment with diclofenac. The rheumatoid factor test was positive and the diagnosis was rheumatoid arthritis. Diclofenac treatment was stopped and they were given 9 mg of budesonide per day."}, "rheumatoid arthritis [4]": {"system": "rheumatoid arthritis", "assay": "Example 8: patient with rheumatoid arthritis treated with oral budesonide", "settings": "9 mg once a day", "experimental": "as §1\nA person had for 2 months suffered from rapidly progressive inflammations of the finger joints of both hands (metacarpophalangeal joints, proximal interphalangeal joints) and the wrists. The diagnosis was rheumatoid arthritis."}, "[5]": {"system": "HLA-B27 associated reactive arthritis", "assay": "Example 4: patient with HLA-B27 associated reactive arthritis treated with oral budesonide", "settings": "person", "experimental": "as §1\nwherein the Ritchie index is an alternative joint arthritic index."}, "rheumatoid arthritis [6]": {"system": "rheumatoid arthritis", "assay": "Example 3: patient with rheumatoid arthritis treated with oral budesonide", "settings": "person, 9 mg once a day, after 4 months", "experimental": "The invention is illustrated by the following examples where budesonide is administered orally using the Entocort™ preparation as described in EP-A-502092. […] They were diagnosed as having rheumatoid arthritis. They were treated with 9 mg of budesonide once a day. The tests for the symptoms were carried out in the same way as in Examples 1 and 2."}, "rheumatoid arthritis [7]": {"system": "rheumatoid arthritis", "assay": "Example 6: patient with rheumatoid arthritis treated with oral budesonide", "settings": "person, 9 mg per day, follow-up 4 weeks", "experimental": "as §1"}, "[8]": {"settings": "person, oral, second follow-up three weeks after the first, before treatment 7"}, "[9]": {"settings": "9 mg once a day, oral, one month after start, before treatment 8"}},
  "data": [
    {"smiles": "CN(Cc1cnc2nc(N)nc(N)c2n1)c1ccc(C(=O)N[C@@H](CCC(=O)O)C(=O)O)cc1", "note": "[methotrexate]", "values": [
      {"measurement": "Outcome of previous treatment", "setting": "[1]", "result": "without success"},
      {"measurement": "Outcome of previous treatment", "setting": "ankylosing spondylitis", "result": "without success"},
      {"measurement": "Outcome of previous treatment", "setting": "[2]; person", "result": "without any apparent disease-modifying effect"}
    ]},
    {"smiles": "O=C(O)c1cc(/N=N/c2ccc(S(=O)(=O)Nc3ccccn3)cc2)ccc1O", "note": "[sulphasalazine]", "values": [
      {"measurement": "Outcome of previous treatment", "setting": "ankylosing spondylitis", "result": "without success"},
      {"measurement": "Outcome of previous treatment", "setting": "[2]; person", "result": "without any apparent disease-modifying effect"}
    ]},
    {"smiles": "CCCC1O[C@@H]2C[C@H]3[C@@H]4CCC5=CC(=O)C=C[C@]5(C)[C@H]4[C@@H](O)C[C@]3(C)[C@]2(C(=O)CO)O1", "note": "(stereo partly shown) [budesonide]", "values": [
      {"measurement": "Joint pains in motion (VAS 0-10)", "setting": "rheumatoid arthritis [3]; before treatment 5", "result": "0/0"},
      {"measurement": "Joint pains at rest (VAS 0-10)", "setting": "rheumatoid arthritis [3]; before treatment 10", "result": "0/0"},
      {"measurement": "Ritchie index", "setting": "rheumatoid arthritis [3]; before treatment 19", "result": 5},
      {"measurement": "Joint arthritic index", "setting": "rheumatoid arthritis [3]; before treatment 112", "result": 15},
      {"measurement": "Morning stiffness", "setting": "rheumatoid arthritis [3]; before treatment 210", "result": 15, "unit": "min"},
      {"measurement": "Time until they started to feel better", "setting": "rheumatoid arthritis [4]", "result": 14, "unit": "days"},
      {"measurement": "Ritchie index", "setting": "rheumatoid arthritis [4]; person, oral, first follow-up three weeks after start, before treatment 16", "result": 2},
      {"measurement": "Joint arthritic index", "setting": "rheumatoid arthritis [4]; person, oral, first follow-up three weeks after start, before treatment 90", "result": 0},
      {"measurement": "Joint pains at rest (VAS 0-10)", "setting": "rheumatoid arthritis [4]; [8]", "result": "1/1"},
      {"measurement": "Joint pains in motion (VAS 0-10)", "setting": "rheumatoid arthritis [4]; [8]", "result": "1/1"},
      {"measurement": "Spinal movement (Shober's Test)", "setting": "[1]; 9 mg once a day four weeks then 6 mg per day, oral, after 2 months, before treatment 1, normal 5 to 6", "result": 4, "unit": "cm"},
      {"measurement": "Joint pains at rest (VAS 0-10)", "setting": "[1]; 9 mg once a day four weeks then 6 mg per day, oral, after 2 months, before treatment 5", "result": "1.5/1.5"},
      {"measurement": "Joint pains in motion (VAS 0-10)", "setting": "[1]; 9 mg once a day four weeks then 6 mg per day, oral, after 2 months, before treatment 9.5", "result": "1.5/1.5"},
      {"measurement": "Morning stiffness", "setting": "[1]; 9 mg once a day four weeks then 6 mg per day, oral, after 2 months, before treatment 120, normal 0", "result": 20, "unit": "min"},
      {"measurement": "Joint arthritic index (Lansbury index)", "setting": "[1]; 9 mg once a day four weeks then 6 mg per day, oral, after 2 months, before treatment 127, normal 0", "result": 0},
      {"measurement": "Ritchie index", "setting": "[5]; 9 mg once a day, oral, three weeks, before treatment 9", "result": 4},
      {"measurement": "Joint arthritic index", "setting": "[5]; 9 mg once a day, oral, three weeks, before treatment 112", "result": 6},
      {"measurement": "Morning stiffness", "setting": "[5]; 9 mg once a day, oral, three weeks, before treatment 120", "result": 60, "unit": "min"},
      {"measurement": "Spinal movement (Shober's Test)", "setting": "ankylosing spondylitis; 9 mg once a day, oral, one month after start, before treatment 2.5", "result": 3.5, "unit": "cm"},
      {"measurement": "Joint pains at rest (VAS 0-10)", "setting": "ankylosing spondylitis; [9]", "result": 1},
      {"measurement": "Joint pains in motion (VAS 0-10)", "setting": "ankylosing spondylitis; [9]", "result": 1.7},
      {"measurement": "ESR rate (erythrocyte sedimentation rate)", "setting": "ankylosing spondylitis; 9 mg once a day, oral, one month after start, before treatment 85, normal less than 5", "result": 30, "unit": "mm/h"},
      {"measurement": "Joint arthritic index (Lansbury index)", "setting": "ankylosing spondylitis; 9 mg once a day, oral, one month after start, before treatment 127", "result": 80},
      {"measurement": "C-reactive protein plasma concentration", "setting": "ankylosing spondylitis; 9 mg once a day, oral, one month after start, before treatment 140, usually less than 10", "result": 25, "unit": "mg/L"},
      {"measurement": "Morning stiffness", "setting": "ankylosing spondylitis; 9 mg once a day, oral, one month after start, before treatment 270", "result": 0, "unit": "min"},
      {"measurement": "C-reactive protein", "setting": "rheumatoid arthritis [6]; before treatment 41", "result": 10, "unit": "mg/L"},
      {"measurement": "ESR rate", "setting": "rheumatoid arthritis [6]; before treatment 70", "result": 16, "unit": "mm/h"},
      {"measurement": "Morning stiffness", "setting": "rheumatoid arthritis [6]; before treatment 180", "result": 0, "unit": "min"},
      {"measurement": "Joint arthritic index (Lansbury index)", "setting": "rheumatoid arthritis [6]; before treatment 205", "result": 0},
      {"measurement": "Duration of treatment until they started to improve", "setting": "[2]; 9 mg per day", "result": 2, "unit": "weeks"},
      {"measurement": "Ritchie index", "setting": "[2]; person, 9 mg per day, oral, 6 weeks after start, before treatment 3", "result": 0},
      {"measurement": "Joint pains in motion (VAS 0-10)", "setting": "[2]; person, 9 mg per day, oral, 6 weeks after start, before treatment 8", "result": "0/0"},
      {"measurement": "Joint pains at rest (VAS 0-10)", "setting": "[2]; person, 9 mg per day, oral, 6 weeks after start, before treatment 9.5", "result": "0/0"},
      {"measurement": "Joint arthritic index", "setting": "[2]; person, 9 mg per day, oral, 6 weeks after start, before treatment 127", "result": 0},
      {"measurement": "Morning stiffness", "setting": "[2]; person, 9 mg per day, oral, 6 weeks after start, before treatment 180", "result": 0, "unit": "min"},
      {"measurement": "Ritchie index", "setting": "rheumatoid arthritis [7]; before treatment 8", "result": 5},
      {"measurement": "Joint arthritic index", "setting": "rheumatoid arthritis [7]; before treatment 64", "result": 0},
      {"measurement": "Morning stiffness", "setting": "rheumatoid arthritis [7]; before treatment 120", "result": 60, "unit": "min"}
    ]},
    {"smiles": "C[C@]12C=CC(=O)C=C1CC[C@@H]1[C@@H]2[C@@H](O)C[C@@]2(C)[C@H]1CC[C@]2(O)C(=O)CO", "note": "[prednisolone]", "values": [
      {"measurement": "Outcome of previous treatment", "setting": "[1]", "result": "without success"},
      {"measurement": "Outcome of previous treatment", "setting": "[5]; reactive arthritis, treatment before budesonide", "result": "some relief of the joint pains"},
      {"measurement": "Outcome of previous treatment", "setting": "[2]; person", "result": "without any apparent disease-modifying effect"}
    ]}
  ]
}
